System: adenine nucleotide translocase (ANT)
Assay: Binding of solubilized heart IMM proteins to immobilized phenylarsine oxide (Western blot of ANT)
Parameters: species or system beef and pig
Settings: heart mitochondria treated with 10 μM CAT prior to IMM isolation and solubilization
Protocol: Centrifugation steps in this process were carried out using a benchtop Eppendorf 5415R centrifuge at 4°C. Mitochondria were washed in ISB and centrifuged at 12 000 g for 5 min before re-suspension in ISB containing protease inhibitors (4 μg/ml each of antipan, pepstatin A and leupeptin plus 0.5 mM benzamidine and 0.5 mM PMSF). Mitochondria were incubated with digitonin (0.12 mg/mg of mitochondrial protein) at 4°C for 15 min on a rotary mixer, and the resulting mitoplasts collected by centrifugation at 9000 g for 10 min before resuspension in ISB containing protease inhibitors and PEG ether W1 (Sigma P7516, formerly known as Lubrol) at 0.16 mg/mg of mitochondrial protein. […]
An immobilized PAO matrix was synthesized by coupling 4-aminophenylarsine oxide to Affi-gel 10 (Bio-Rad Laboratories 153-6099) as described previously. The resin was washed twice in 10 volumes of PAO column buffer (PCB: 150 mM Na2SO4, 50 mM HEPES and 1 mM EGTA, pH 7.2) containing 0.5% (v/v) Triton X-100 and then resuspended to give a 50% (v/v) slurry ready for use. […] Samples were analysed by SDS/PAGE and Western blotting or analysed by Orbitrap MS in the University of Bristol Proteomics Facility. […] The integrated optical density for each band was calculated as the product of the ‘area’ and ‘mean grey value’ with subtraction of a background signal obtained for an equivalent adjacent area lacking any band. […]

## C=C1[C@@H]2CC[C@H]3[C@]4(C)C[C@H](O[C@@H]5O[C@H](CO)[C@@H](OS(=O)(=O)O)[C@H](OS(=O)(=O)O)[C@H]5OC(=O)CC(C)C)CC(C(=O)O)(C(=O)O)[C@H]4CC[C@]3(C2)[C@H]1O [CAT, carboxyatractyloside]
  ANT binding to the PAO column: totally prevented

Reference: PMC4845862, “Quantification of active mitochondrial permeability transition pores using GNX-4975 inhibitor titrations provides insights into molecular identity” (Biochemical Journal, 2016)
